Experimental data as given in the OligoGym collection.
Several values for one entry are separate records, joined by “and”; a condition that tells them apart may be missing. Equal entries are not always repeated. After the bases stand the sugars from the 5' end (letter, count) and the backbone: PS all phosphorothioate, else s phosphorothioate and o phosphodiester by linkage. HELM strings list units from the 5' end as sugar, base in round brackets, then linkage (d deoxyribose, r ribose, m 2'-O-methyl, p phosphodiester). Methylation of C is not given here. [moe] = 2'-O-(2-methoxyethyl) (MOE); [cEt] = constrained ethyl (cEt); [sp] = phosphorothioate linkage; e = 2'-O-(2-methoxyethyl) (MOE); k = constrained ethyl (cEt); d = 2'-deoxy (DNA)

What was measured:
HBV = conditions: ASO
IRF5 = conditions: ASO

Substance	target mRNA inhibition (HBV; HepG2, 0.07 µM)	target mRNA inhibition (IRF5; KARPAS-229, 4 µM)	further results
RNA1{[moe](C)[sp].[cEt](G)[sp].[cEt](G)[sp].d(G)[sp].d(C)[sp].d(A)[sp].d(A)[sp].d(C)[sp].d(A)[sp].d(T)[sp].d(A)[sp].d(C)[sp].d(C)[sp].[cEt](T)[sp].[cEt](T)[sp].[moe](G)}$$$$V2.0	61% and 63%		
RNA1{[moe](A)[sp].[moe](G)[sp].[moe](A)[sp].[moe](G)[sp].d(G)[sp].d(T)[sp].d(G)[sp].d(A)[sp].d(A)[sp].d(G)[sp].d(C)[sp].d(G)[sp].d(A)[sp].[moe](A)[sp].[moe](G)[sp].[moe](T)}$$$$V2.0	52% and 54%		
RNA1{[moe](A)[sp].[cEt](A)[sp].[moe](G)[sp].[cEt](C)[sp].d(G)[sp].d(A)[sp].d(A)[sp].d(G)[sp].d(T)[sp].d(G)[sp].d(C)[sp].d(A)[sp].d(C)[sp].[moe](A)[sp].[moe](C)[sp].[moe](G)[sp].[moe](G)}$$$$V2.0			target mRNA inhibition (HBV; HepG2, 0.009375 µM): 29%; target mRNA inhibition (HBV; HepG2, 0.01875 µM): 30%; target mRNA inhibition (HBV; HepG2, 0.0375 µM): 41%; target mRNA inhibition (HBV; HepG2, 0.075 µM): 71%; target mRNA inhibition (HBV; HepG2, 0.15 µM): 86%; target mRNA inhibition (HBV; HepG2, 0.3 µM): 88%
RNA1{[moe](A)[sp].[cEt](G)[sp].[cEt](A)[sp].d(A)[sp].d(G)[sp].d(T)[sp].d(C)[sp].d(C)[sp].d(A)[sp].d(C)[sp].d(C)[sp].d(A)[sp].d(C)[sp].[cEt](G)[sp].[cEt](A)[sp].[moe](G)}$$$$V2.0	58% and 48%		
RNA1{[moe](C)[sp].[cEt](G)[sp].d(T)[sp].d(G)[sp].d(C)[sp].d(A)[sp].d(G)[sp].d(A)[sp].d(G)[sp].d(G)[sp].d(T)[sp].d(G)[sp].[cEt](A)[sp].[moe](A)[sp].[cEt](G)[sp].[moe](C)}$$$$V2.0	76% and 79%		
RNA1{[moe](A)[sp].[moe](T)[sp].[moe](G)[sp].[moe](A)[sp].d(G)[sp].d(G)[sp].d(C)[sp].d(A)[sp].d(T)[sp].d(A)[sp].d(G)[sp].d(C)[sp].d(A)[sp].[moe](G)[sp].[moe](C)[sp].[moe](A)[sp].[moe](G)}$$$$V2.0	0%		
RNA1{[moe](A)[sp].[moe](T)[sp].[moe](G)[sp].d(A)[sp].d(G)[sp].d(G)[sp].d(C)[sp].d(A)[sp].d(T)[sp].d(A)[sp].d(G)[sp].d(C)[sp].d(A)[sp].[cEt](G)[sp].[cEt](C)[sp].[cEt](A)}$$$$V2.0	71% and 73%		
RNA1{[moe](C)[sp].[cEt](A)[sp].[cEt](C)[sp].d(G)[sp].d(A)[sp].d(G)[sp].d(T)[sp].d(C)[sp].d(T)[sp].d(A)[sp].d(G)[sp].d(A)[sp].d(C)[sp].[cEt](T)[sp].[cEt](C)[sp].[moe](T)}$$$$V2.0	44% and 38%		
RNA1{[moe](T)[sp].[cEt](G)[sp].d(A)[sp].d(G)[sp].d(G)[sp].d(C)[sp].d(A)[sp].d(T)[sp].d(A)[sp].d(G)[sp].d(C)[sp].d(A)[sp].[cEt](G)[sp].[moe](C)[sp].[cEt](A)[sp].[moe](G)}$$$$V2.0	69% and 75%		
RNA1{[moe](C)[sp].[moe](G)[sp].[moe](C)[sp].[moe](A)[sp].[moe](G)[sp].d(T)[sp].d(A)[sp].d(T)[sp].d(G)[sp].d(G)[sp].d(A)[sp].d(T)[sp].d(C)[sp].d(G)[sp].[moe](G)[sp].[moe](C)}$$$$V2.0	64% and 57%		
RNA1{[moe](C)[sp].[moe](G)[sp].[moe](A)[sp].[moe](A)[sp].[moe](C)[sp].d(C)[sp].d(A)[sp].d(C)[sp].d(T)[sp].d(G)[sp].d(A)[sp].d(A)[sp].d(C)[sp].d(A)[sp].[moe](A)[sp].[moe](A)}$$$$V2.0	36% and 19%		
RNA1{[moe](T)[sp].[moe](G)[sp].[moe](A)[sp].[moe](G)[sp].d(G)[sp].d(C)[sp].d(A)[sp].d(T)[sp].d(A)[sp].d(G)[sp].d(C)[sp].d(A)[sp].d(G)[sp].[moe](C)[sp].[moe](A)[sp].[moe](G)[sp].[moe](G)}$$$$V2.0	38% and 40%		
RNA1{[moe](T)[sp].[moe](A)[sp].[moe](T)[sp].d(G)[sp].d(C)[sp].d(C)[sp].d(T)[sp].d(A)[sp].d(C)[sp].d(A)[sp].d(G)[sp].d(C)[sp].d(C)[sp].[cEt](T)[sp].[cEt](C)[sp].[cEt](C)}$$$$V2.0	39% and 45%		
RNA1{[moe](C)[sp].[moe](A)[sp].[moe](C)[sp].d(T)[sp].d(A)[sp].d(G)[sp].d(T)[sp].d(A)[sp].d(A)[sp].d(A)[sp].d(C)[sp].d(T)[sp].[moe](G)[sp].[moe](A)[sp].[moe](G)[sp].[moe](C)[sp].[moe](C)}$$$$V2.0	54% and 37%		
RNA1{[moe](G)[sp].[moe](C)[sp].[moe](A)[sp].[moe](C)[sp].[moe](T)[sp].[moe](A)[sp].d(G)[sp].d(T)[sp].d(A)[sp].d(A)[sp].d(A)[sp].d(C)[sp].d(T)[sp].d(G)[sp].d(A)[sp].[moe](G)[sp].[moe](C)}$$$$V2.0	74% and 65%		
RNA1{[moe](C)[sp].[moe](T)[sp].[moe](G)[sp].d(G)[sp].d(A)[sp].d(G)[sp].d(C)[sp].d(C)[sp].d(A)[sp].d(C)[sp].d(C)[sp].d(A)[sp].[moe](G)[sp].[moe](C)[sp].[moe](A)[sp].[moe](G)[sp].[moe](G)}$$$$V2.0	79% and 64%		
GGTCTTTGAGGTCTGG (sugars kkddddddddkekekk, PS)		52%	
GAGCAAAGGGTGAGTA (sugars k3 d10 k3, PS)		0%	

Substance	target mRNA inhibition (HBV; HepG2, 0.07 µM)	target mRNA inhibition (IRF5; KARPAS-229, 4 µM)	further results
AGGTTCTTGGACTCTC (sugars kkdddddddddkekek, PS)		38%	
ATGGTGTTATCTCCGT (sugars kdddddddddkekeke, PS)		0%	
TAGTGTCATGGAATTT (sugars k3 d10 k3, PS)		38%	
TGAGTCATGGGCTGAG (sugars kkkdddddddddkeke, PS)		17%	
AGGTTCTTGGACTCTC (sugars k2 d8 e4 k2, PS)		17%	
AGGAAGTGAGTCTCAA (sugars kekdddddddddeekk, PS)		43%	
CGGTCTTTGAGGTCTG (sugars kddddddddddkekek, PS)		68%	
CTTGGTCTTGACCTCC (sugars k3 d9 k3 e1, PS)		6%	
CTTCTGCAGGGAGTCA (sugars k3 d9 k3 e1, PS)		0%	
TTATTTCTGCTCCAGG (sugars kkdddddddddkekek, PS)		9%	
CCTTCTGCAGGGAGTC (sugars k3 d9 k3 e1, PS)		0%	
GAGTGAGACGAGCAAA (sugars kddddddddddkekek, PS)		18%	
ATTCCAATTTTGCATT (sugars k3 d10 k3, PS)		21%	
ACATCTCCACATCAGT (sugars kkddddddddkekekk, PS)		15%	
ACCACTGTGTACCCCA (sugars kkkddddddddkekek, PS)		6%	
CCATTCTATGCCTTTT (sugars kkddddddddddkeke, PS)		61% and 62%	target mRNA inhibition (IRF5; KARPAS-229, 0.44444 µM): 37%; target mRNA inhibition (IRF5; KARPAS-229, 1.33333 µM): 45%; target mRNA inhibition (IRF5; KARPAS-229, 12 µM): 73%
TTATCTCCGTCCTGGC (sugars k3 d9 k3 e1, PS)		0%	
TGCACTGACACAGGCG (sugars kkddddddddddkeke, PS)		16%	
